One assay deals with GTPase KRas [G12D] (Homo sapiens, UniProt P01116, G12D). The assay can be described thus: KRAS G12D LoEnz Biochemical Assay. As to the method:
Biochemical compound potencies are assessed by evaluating inhibition of SOS1I-mediated nucleotide exchange in KRAS […]. In this assay, the SOS1-promoted exchange of fluorescently-labeled GDP (BOPIDY-GDP) is monitored by time-resolved fluorescence resonance energy transfer (TR-FRET). Compounds solubilized in DMS0 are dispensed as concentration series into 384-well white assay plates. A preformed complex of biotin-tagged recombinant human KRAS (0.06 nM mutant G1 2D) and 0.06 nM terbium-labeled streptavidin (CisBIO) prepared in 10 uL/well assay buffer (20 mM HEPES, pH 7.5, 50 mM NaCl, 10 mMMMgCl2, 0.0100 Tween-20 and 1 mM dithiothreitol) is added and allowed to incubate for 10-minutes at room temperature. The reaction is initiated with the addition of 5 uL 300 nM recombinant human SOS1 and 300 nM BODIPY-GDP in assay buffer. After a 120-minute incubation, the fluorescence is measured with excitation at 337 nm and emission at 490 and 520 nm. The TR-FRET ratio is determined as the fluorescence at 520 nm divided by the fluorescence at 490 nm multiplied by 10,000. The results are normalized to percent inhibition based on control samples: DMSO (0% inhibition) and control compound at a concentration that inhibits completely (100% inhibition).

The target of a further assay is GTPase KRas (Homo sapiens, UniProt P01116). The assay can be described thus: KRAS WT Biochemical Assay. As to the method:
Biochemical compound potencies are assessed by evaluating inhibition of SOS1-mediated nucleotide exchange in KRAS WT. In this assay, the SOS1-promoted exchange of fluorescently-labeled GDP (BOPIDY-GDP) is monitored by time-resolved fluorescence resonance energy transfer (TR-FRET). Compounds solubilized in DMSO are dispensed as concentration series into 384-well white assay plates. A preformed complex of 0.06 nM biotin-tagged recombinant human KRAS WT, 15 nM GDP and 0.06 nM terbium-labeled streptavidin (CisBIO) prepared in 10 uL/well assay buffer (20 mM HEPES, pH 7.5, 50 mM NaCl, 10 mM MgCl2, 0.01% Tween-20 and 1 mM dithiothreitol) is added and allowed to incubate for 10-minutes at room temperature. The reaction is initiated with the addition of 5 uL 300 nM recombinant human SOS1 and 300 nM BODIPY-GDP in assay buffer. After a 120-minute incubation, the fluorescence is measured with excitation at 337 nm and emission at 490 and 520 nm.

GTPase KRas [G12D], sequence (P01116 whole entry G12D): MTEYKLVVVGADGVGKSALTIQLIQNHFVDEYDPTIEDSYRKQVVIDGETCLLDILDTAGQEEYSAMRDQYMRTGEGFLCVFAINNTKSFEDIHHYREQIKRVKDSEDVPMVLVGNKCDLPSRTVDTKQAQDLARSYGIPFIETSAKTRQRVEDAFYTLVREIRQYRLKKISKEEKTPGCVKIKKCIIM
GTPase KRas, sequence (P01116 whole entry): as the sequence (P01116 whole entry G12D) above, with D12G counted along it

Regarding `Fc1c(-c2cccc3cccc(Cl)c23)nc2c3c(nc(OC[C@@]45CCCN4C[C@H](F)C5)nc13)N1C[C@H]3CC[C@H](N3)[C@H]1CO2` [US20240025919, Compound 2], the IC50 (commonly the midpoint of a concentration-inhibition curve) was 15.2 nM against GTPase KRas [G12D] and 922 nM on GTPase KRas.
As to `C#Cc1c(F)ccc2cccc(-c3nc4c5c(nc(OCC67CCN6CC(F)(F)C7)nc5c3F)N3C[C@H]5CC[C@H](N5)[C@H]3[C@H](C)O4)c12` (some centres undefined) [US20240025919, Compound 22], the IC50 against GTPase KRas [G12D] came out at 2.99 nM.
Consider `C[C@@H]1Oc2nc(-c3cc(N)c(F)c(F)c3CC(F)F)c(F)c3cc(OC[C@@H]4CC[C@H]5COCCN54)nc(c23)N2C[C@H]3CC[C@H](N3)[C@@H]12` [US20240025919, Compound 158], for which 3.39 nM corresponded to half-maximal inhibition at GTPase KRas [G12D] (IC50).

Values taken from BindingDB's records for patent US20240025919 (Genentech, 2024).
